Tests used:
[1] = test system: androgen receptor; test: Androgen receptor expression by immunoblotting in SZ95 sebocytes; type: cell-based, human; conditions: for inhibition of the androgen receptor expression compared to native SZ95 sebocytes: 1.0 μM, after 14 h; for protein expression of the androgen receptor: 0.4 and 1.0 μM, after 24 hours
[2] = test system: SZ95 sebocytes; test: SZ95 sebocyte proliferation, crystal violet assay; type: cell-based, human; conditions: for inhibition of the testosterone-induced stimulation of the SZ95 sebocyte proliferation: 10^−7 M testosterone, stimulation period 44 hours; for increase in proliferation: after 72 h, native SZ95 sebocytes
[3] = 1 μM oligonucleotide, 4 h transfection, 14 h recovery

For “5′-CTGCACTTCCATCCTTGAGCTTGGC-3′ [Thioate antisense oligonucleotide]”, the “inhibition of the androgen receptor expression compared to native SZ95 sebocytes” value [1] was 39%, the “protein expression of the androgen receptor” value [1] was “reduced protein expression” and the “proliferation pattern in the presence of testosterone” value [2, 3] was “same proliferation pattern as native cells”. For the same molecule, the “inhibition of the testosterone-induced stimulation of the SZ95 sebocyte proliferation” value [2, 3] was “inhibited”.

“5′-CTGCCCTTCAATCCCTGAGTTTGGC-3′ (DNA CTGCCCTTCAATCCCTGAGTTTGGC; listed as DNA, chemistry not given here) [mismatch-oligonucleotide, mismatch control oligonucleotide to safeguard antisense specificity, reference compound]” was tested, and the “protein expression of the androgen receptor versus non-transfected cells” value ([1]; four hours' transfection with DOTAP, recovery phase of at least 24 hours, Western blot) was “comparable”.

For “5′-GCCAAGCUCAAGGAUGGAAGUGCAG-3′ (antisense GCCAAGCUCAAGGAUGGAAGUGCAG; 2'-O-methylribose, further chemistry not given here) [methylribosyl antisense oligonucleotide against the androgen receptor]”, the “inhibition of the androgen receptor expression compared to native SZ95 sebocytes” value [1] was 87%, the “protein expression of the androgen receptor” value [1] was “reduced protein expression” and the “inhibition of the testosterone-induced stimulation of the SZ95 sebocyte proliferation” value [2, 3] was “highly significant”.

With `C[C@]12CCC(=O)C[C@@H]1CC[C@@H]1[C@@H]2CC[C@]2(C)[C@@H](O)CC[C@@H]12` [DHT, 5α-dihydrotestosterone, reference compound] the increase in proliferation ([2]; 10^−7-10^−6 DHT) was “significant”.

With `C[C@]12CC[C@H]3[C@@H](CCC4=CC(=O)CC[C@@]43C)[C@@H]1CC[C@@H]2O` [testosterone, reference compound] the increase in proliferation ([2]; 10^−7 and 5×10^−7 M testosterone) was “significant”.

Reference: US20050053580A1, “Use of microbiology non-viral substances for treating acne” (priority 2001, published 2005)
